BindingDB's records for patent US11111253 (University of Pittsburgh, 2021)

biological target: T1, Signal transducer and activator of transcription 1-alpha/beta (Homo sapiens, UniProt P42224); test: Bioassay
T1 sequence (P42224 whole entry): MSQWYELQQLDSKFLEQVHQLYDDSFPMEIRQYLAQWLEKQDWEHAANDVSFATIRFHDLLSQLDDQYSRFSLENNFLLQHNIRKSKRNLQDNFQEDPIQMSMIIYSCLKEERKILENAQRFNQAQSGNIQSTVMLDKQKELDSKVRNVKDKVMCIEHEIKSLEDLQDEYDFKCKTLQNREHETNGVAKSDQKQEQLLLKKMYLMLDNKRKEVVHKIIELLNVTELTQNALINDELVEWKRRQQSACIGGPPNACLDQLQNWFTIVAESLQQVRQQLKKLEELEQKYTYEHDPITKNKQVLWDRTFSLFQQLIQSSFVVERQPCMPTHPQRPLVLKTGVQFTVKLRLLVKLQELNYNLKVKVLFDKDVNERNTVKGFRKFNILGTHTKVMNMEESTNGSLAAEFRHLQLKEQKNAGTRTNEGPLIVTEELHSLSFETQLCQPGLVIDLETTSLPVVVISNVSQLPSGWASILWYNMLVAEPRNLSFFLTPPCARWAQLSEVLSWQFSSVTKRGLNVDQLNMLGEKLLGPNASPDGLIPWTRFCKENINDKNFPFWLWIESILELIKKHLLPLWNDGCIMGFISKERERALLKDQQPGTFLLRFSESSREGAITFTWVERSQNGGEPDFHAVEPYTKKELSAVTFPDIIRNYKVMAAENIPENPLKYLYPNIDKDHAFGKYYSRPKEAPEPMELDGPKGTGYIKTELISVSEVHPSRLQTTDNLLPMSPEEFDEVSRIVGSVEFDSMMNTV
Experimental: Compound samples (in 3-5 mg quantities) were evaluated in a variety of assays. All compound submissions were fully characterized (1H, 13C, IR, FIRMS), satisfied purity criteria (≥95% LC/MC, ELS).

IC50, > 50 µM:
COc1ccc(C2=Nn3c(nnc3-c3cc(-c4ccccc4)n[nH]3)SC2)cc1 [US11111253, Compound 8b]
CC(C)CC1Sc2nnc(-c3[nH]nc4c3CCC4)n2N=C1c1ccc(Cl)c(Cl)c1 (stereo not drawn) [US11111253, Compound 27]
COc1ccc(C2=Nn3c(nnc3-c3cc(-c4ccccc4)n[nH]3)SC2CC(C)C)cc1 (stereo not drawn) [US11111253, Compound 28]
